Measured values from patent US20220023471A1, “PROCESS FOR DISINFECTION AND PROTECTING SURFACES FROM CONTAMINATION” (GERMINATOR MOBILE SANITIZING, LLC, priority 2020, published 2022).

Columns and labels:
Experiment in all cases: Microorganism Efficacy Test (percent reduction in culture)
Assay type in all cases: cell-based
[1] = system: A brasiliensis ATCC 16404; conditions: time point 60 seconds
Procedure: (§1) Example 1: A Microorganism Efficacy Test for Step One using Hypochlorous acid was tested against a range of different germs and bacteria to determine its efficacy. The hypochlorous acid was added to cultures of the listed microorganisms and left for the indicated amount of time. The percent reduction of each microorganism was measured after the time period had elapsed and the results are shown below in Table 1.

[2] = system: Acinetobacter baumannii ATCC 19606; conditions: time point 15 seconds
Procedure: as §1

C Difficile ATCC 43598 = conditions: time point 60 seconds
Procedure: as §1

[3] = system: Candida albicans ATCC 1023; conditions: time point 60 seconds
Procedure: as §1

E. Coli ATCC 8739 = conditions: time point 60 seconds
Procedure: as §1

[4] = system: Enterococcus faecalis (VRE) ATCC 51299; conditions: time point 15 seconds
Procedure: as §1

[5] = system: K. pneumonia (CRE) ATCC BAA-2146; conditions: time point 60 seconds
Procedure: as §1

[6] = system: Listeria Monocytogens ATCC 15313; conditions: time point 60 seconds
Procedure: as §1

[7] = system: Propionibacterium Acnes ATCC 6919; conditions: time point 60 seconds
Procedure: as §1

[8] = system: Proteus mirabilis ATCC7002; conditions: time point 15 seconds
Procedure: as §1

[9] = system: Pseudomonas aeruginosa ATCC 9027; conditions: time point 60 seconds
Procedure: as §1

S. aureus ATCC 6538 = conditions: time point 60 seconds
Procedure: as §1

[10] = system: Serratia marscesens ATCC 14756; conditions: time point 15 seconds
Procedure: as §1

[11] = system: Staphylococcus arureus (MRSA) ATCC 33592; conditions: time point 15 seconds
Procedure: as §1

## OCl [Hypochlorous acid]
[1]
  % REDUCTION: >99.999%
[2]
  % REDUCTION: 100%
C Difficile ATCC 43598
  % REDUCTION: >100%
[3]
  % REDUCTION: >99.9999%
E. Coli ATCC 8739
  % REDUCTION: >99.999%
[4]
  % REDUCTION: 100%
[5]
  % REDUCTION: >99.9994%
[6]
  % REDUCTION: >99.96%
[7]
  % REDUCTION: >99.99%
[8]
  % REDUCTION: >99.999%
[9]
  % REDUCTION: >99.999%
S. aureus ATCC 6538
  % REDUCTION: >99.999%
[10]
  % REDUCTION: >99.999%
[11]
  % REDUCTION: >99.999%
